# Measured values published in ChEMBL document CHEMBL5150061, “Design and Synthesis of Fibroblast Growth Factor Receptor (FGFR) and Histone Deacetylase (HDAC) Dual Inhibitors for the Treatment of Cancer” (J Med Chem, 2022).
# How the values were obtained:
# SNU-16 [1] = experiment: Induction of apoptosis in human SNU-16 cells assessed as late apoptotic cells at 0.3 uM incubated for 72 hrs by annexin-V/FITC propidium iodide staining based flow cytometry analysis (reference value: 3.41%); type: functional
# [2] = Toxicity in BALB/c nude mouse xenografted with human SNU-16 cells assessed as reduction in body weight at 50 mg/kg/day, ip administered for 18 days and measured every 3 days; type: organism-based; conditions: in vivo, 432 h, time 18 day
# SNU-16 [3] = experiment: Induction of apoptosis in human SNU-16 cells assessed as late apoptotic cells at 0.1 uM incubated for 72 hrs by annexin-V/FITC propidium iodide staining based flow cytometry analysis (reference value: 3.41%); type: functional
# [4] = Toxicity in BALB/c nude mouse xenografted with human HCT-116 cells assessed as reduction in body weight at 30 mg/kg/day, po administered for 18 days and measured every 3 days; type: organism-based; conditions: in vivo, 432 h, time 18 day
# SNU-16 [5] = experiment: Induction of apoptosis in human SNU-16 cells assessed as live cells at 0.1 uM incubated for 72 hrs by annexin-V/FITC propidium iodide staining based flow cytometry analysis (reference value: 90.92%); type: functional
# SNU-16 [6] = experiment: Induction of apoptosis in human SNU-16 cells assessed as dead cells at 0.3 uM incubated for 72 hrs by annexin-V/FITC propidium iodide staining based flow cytometry analysis (reference value: […]); type: functional
# SNU-16 [7] = experiment: Induction of apoptosis in human SNU-16 cells assessed as early apoptotic cells at 0.3 uM incubated for 72 hrs by annexin-V/FITC propidium iodide staining based flow cytometry analysis (reference value: 3.02%); type: functional
# SNU-16 [8] = experiment: Induction of apoptosis in human SNU-16 cells assessed as early apoptotic cells at 0.03 uM incubated for 72 hrs by annexin-V/FITC propidium iodide staining based flow cytometry analysis (reference value: 3.02%); type: functional
# SNU-16 [9] = experiment: Induction of apoptosis in human SNU-16 cells assessed as late apoptotic cells at 1 uM incubated for 72 hrs by annexin-V/FITC propidium iodide staining based flow cytometry analysis (reference value: 3.41%); type: functional
# K562 = experiment: cells; type: functional, cell-based; conditions: Homo sapiens, K562, 72 h
# SNU-16 [10] = experiment: Induction of apoptosis in human SNU-16 cells assessed as dead cells at 0.1 uM incubated for 72 hrs by annexin-V/FITC propidium iodide staining based flow cytometry analysis (reference value: […]); type: functional
# SNU-16 [11] = experiment: Induction of apoptosis in human SNU-16 cells assessed as live cells at 1 uM incubated for 72 hrs by annexin-V/FITC propidium iodide staining based flow cytometry analysis (reference value: 90.92%); type: functional
# SNU-16 [12] = experiment: Induction of apoptosis in human SNU-16 cells assessed as live cells at 0.3 uM incubated for 72 hrs by annexin-V/FITC propidium iodide staining based flow cytometry analysis (reference value: 90.92%); type: functional
# SNU-16 [13] = experiment: Induction of apoptosis in human SNU-16 cells assessed as late apoptotic cells at 0.03 uM incubated for 72 hrs by annexin-V/FITC propidium iodide staining based flow cytometry analysis (reference value: 3.41%); type: functional
# SNU-16 [14] = experiment: Induction of apoptosis in human SNU-16 cells assessed as early apoptotic cells at 1 uM incubated for 72 hrs by annexin-V/FITC propidium iodide staining based flow cytometry analysis (reference value: 3.02%); type: functional
# SNU-16 [15] = experiment: Induction of apoptosis in human SNU-16 cells assessed as early apoptotic cells at 0.1 uM incubated for 72 hrs by annexin-V/FITC propidium iodide staining based flow cytometry analysis (reference value: 3.02%); type: functional
# SNU-16 [16] = experiment: Induction of apoptosis in human SNU-16 cells assessed as live cells at 0.03 uM incubated for 72 hrs by annexin-V/FITC propidium iodide staining based flow cytometry analysis (reference value: 90.92%); type: functional
# SNU-16 [17] = experiment: Induction of apoptosis in human SNU-16 cells assessed as dead cells at 0.03 uM incubated for 72 hrs by annexin-V/FITC propidium iodide staining based flow cytometry analysis (reference value: […]); type: functional
# SNU-16 [18] = experiment: Induction of apoptosis in human SNU-16 cells assessed as dead cells at 1 uM incubated for 72 hrs by annexin-V/FITC propidium iodide staining based flow cytometry analysis (reference value: […]); type: functional
# Histone deacetylase 1 = Histone deacetylase 1 (Homo sapiens, UniProt Q13547); experiment: Inhibition of HDAC1 (unknown origin)
# Chain of Histone deacetylase 1 (Q13547 whole entry): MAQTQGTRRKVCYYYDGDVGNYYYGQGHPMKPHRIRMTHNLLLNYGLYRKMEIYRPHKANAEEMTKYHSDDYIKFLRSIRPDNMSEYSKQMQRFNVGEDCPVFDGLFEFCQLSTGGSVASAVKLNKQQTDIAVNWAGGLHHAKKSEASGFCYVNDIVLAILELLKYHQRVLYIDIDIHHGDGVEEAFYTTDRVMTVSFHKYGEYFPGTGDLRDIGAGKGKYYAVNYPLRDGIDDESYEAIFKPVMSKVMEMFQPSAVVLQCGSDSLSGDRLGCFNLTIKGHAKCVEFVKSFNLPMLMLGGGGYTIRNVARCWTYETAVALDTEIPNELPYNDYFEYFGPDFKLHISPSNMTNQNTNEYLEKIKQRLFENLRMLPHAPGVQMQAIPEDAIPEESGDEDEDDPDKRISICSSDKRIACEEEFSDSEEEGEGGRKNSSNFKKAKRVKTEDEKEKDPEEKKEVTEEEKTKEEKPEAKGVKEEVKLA
# Histone deacetylase 8 = molecular target: T1, Histone deacetylase 8 (Homo sapiens, UniProt Q9BY41); experiment: Inhibition of HDAC8 (unknown origin)
# T1 sequence (Q9BY41 whole entry): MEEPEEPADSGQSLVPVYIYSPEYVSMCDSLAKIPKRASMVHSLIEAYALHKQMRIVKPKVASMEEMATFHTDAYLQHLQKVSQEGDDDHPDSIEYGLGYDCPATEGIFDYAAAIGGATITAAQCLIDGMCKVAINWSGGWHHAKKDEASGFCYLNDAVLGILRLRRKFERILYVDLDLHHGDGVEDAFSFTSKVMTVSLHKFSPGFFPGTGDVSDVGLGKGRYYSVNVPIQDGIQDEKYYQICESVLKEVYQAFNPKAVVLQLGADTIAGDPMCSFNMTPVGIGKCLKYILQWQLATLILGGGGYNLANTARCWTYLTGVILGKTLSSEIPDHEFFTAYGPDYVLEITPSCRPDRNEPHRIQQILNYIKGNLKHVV
# [19] = molecular target: T2, Protein deacetylase HDAC6 (Homo sapiens, UniProt Q9UBN7); experiment: Inhibition of HDAC6 (unknown origin)
# T2 sequence (Q9UBN7 whole entry): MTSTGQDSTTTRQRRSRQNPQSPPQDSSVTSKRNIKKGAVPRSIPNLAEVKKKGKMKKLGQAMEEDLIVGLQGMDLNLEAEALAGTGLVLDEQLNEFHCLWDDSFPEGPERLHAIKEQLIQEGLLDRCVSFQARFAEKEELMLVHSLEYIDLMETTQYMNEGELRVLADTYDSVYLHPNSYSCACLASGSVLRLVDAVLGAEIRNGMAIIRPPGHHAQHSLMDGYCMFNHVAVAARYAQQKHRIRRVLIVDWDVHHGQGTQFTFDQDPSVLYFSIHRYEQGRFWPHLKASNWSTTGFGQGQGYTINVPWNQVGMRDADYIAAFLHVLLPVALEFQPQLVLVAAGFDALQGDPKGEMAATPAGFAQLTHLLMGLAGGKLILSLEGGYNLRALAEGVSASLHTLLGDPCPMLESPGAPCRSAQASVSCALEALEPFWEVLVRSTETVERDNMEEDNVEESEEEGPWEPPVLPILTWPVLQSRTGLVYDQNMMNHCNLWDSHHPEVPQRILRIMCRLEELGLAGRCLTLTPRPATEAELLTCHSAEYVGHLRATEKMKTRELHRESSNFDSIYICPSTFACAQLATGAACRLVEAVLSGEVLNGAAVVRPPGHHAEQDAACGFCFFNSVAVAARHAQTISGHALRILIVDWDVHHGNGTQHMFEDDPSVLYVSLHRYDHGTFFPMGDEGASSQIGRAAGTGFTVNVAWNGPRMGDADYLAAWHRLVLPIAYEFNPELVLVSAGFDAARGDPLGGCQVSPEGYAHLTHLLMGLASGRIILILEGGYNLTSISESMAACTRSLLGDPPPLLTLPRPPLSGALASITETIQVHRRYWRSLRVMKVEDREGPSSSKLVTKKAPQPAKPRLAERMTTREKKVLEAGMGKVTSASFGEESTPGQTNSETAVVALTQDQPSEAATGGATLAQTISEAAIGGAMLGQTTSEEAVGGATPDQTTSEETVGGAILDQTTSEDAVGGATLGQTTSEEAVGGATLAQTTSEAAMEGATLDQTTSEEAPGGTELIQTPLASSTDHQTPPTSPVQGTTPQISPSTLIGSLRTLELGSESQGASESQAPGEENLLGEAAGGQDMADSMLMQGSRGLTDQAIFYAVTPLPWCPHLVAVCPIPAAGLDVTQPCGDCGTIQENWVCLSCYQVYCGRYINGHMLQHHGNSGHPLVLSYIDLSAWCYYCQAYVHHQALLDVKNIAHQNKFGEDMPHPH
# [20] = molecular target: Fibroblast growth factor receptor 4 (Homo sapiens, UniProt P22455); experiment: Inhibition of FGFR4 (unknown origin)
# Chain of Fibroblast growth factor receptor 4 (P22455 whole entry): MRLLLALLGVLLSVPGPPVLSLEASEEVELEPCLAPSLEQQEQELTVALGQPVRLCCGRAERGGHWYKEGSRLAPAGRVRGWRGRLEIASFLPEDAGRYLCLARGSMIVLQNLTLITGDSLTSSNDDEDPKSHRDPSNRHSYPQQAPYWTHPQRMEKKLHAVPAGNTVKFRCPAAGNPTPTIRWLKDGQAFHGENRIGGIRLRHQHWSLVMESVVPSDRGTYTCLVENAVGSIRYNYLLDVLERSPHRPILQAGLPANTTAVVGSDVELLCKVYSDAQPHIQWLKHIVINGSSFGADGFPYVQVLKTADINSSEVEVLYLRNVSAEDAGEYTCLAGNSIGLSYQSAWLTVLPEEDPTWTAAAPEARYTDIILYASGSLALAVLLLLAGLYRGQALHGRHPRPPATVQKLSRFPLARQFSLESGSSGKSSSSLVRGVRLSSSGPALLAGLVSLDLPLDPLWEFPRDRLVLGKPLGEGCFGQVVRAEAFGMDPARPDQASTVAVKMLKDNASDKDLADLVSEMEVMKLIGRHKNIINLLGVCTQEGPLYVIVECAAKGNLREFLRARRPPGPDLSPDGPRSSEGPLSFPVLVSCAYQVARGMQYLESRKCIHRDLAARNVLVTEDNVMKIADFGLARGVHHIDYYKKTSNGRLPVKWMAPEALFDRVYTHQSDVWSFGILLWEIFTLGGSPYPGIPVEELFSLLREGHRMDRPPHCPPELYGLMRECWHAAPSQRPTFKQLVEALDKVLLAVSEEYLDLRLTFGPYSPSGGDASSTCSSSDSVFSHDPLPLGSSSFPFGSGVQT
# [21] = molecular target: Fibroblast growth factor receptor 3 (Homo sapiens, UniProt P22607); experiment: Inhibition of FGFR3 (unknown origin)
# Chain of Fibroblast growth factor receptor 3 (P22607 whole entry): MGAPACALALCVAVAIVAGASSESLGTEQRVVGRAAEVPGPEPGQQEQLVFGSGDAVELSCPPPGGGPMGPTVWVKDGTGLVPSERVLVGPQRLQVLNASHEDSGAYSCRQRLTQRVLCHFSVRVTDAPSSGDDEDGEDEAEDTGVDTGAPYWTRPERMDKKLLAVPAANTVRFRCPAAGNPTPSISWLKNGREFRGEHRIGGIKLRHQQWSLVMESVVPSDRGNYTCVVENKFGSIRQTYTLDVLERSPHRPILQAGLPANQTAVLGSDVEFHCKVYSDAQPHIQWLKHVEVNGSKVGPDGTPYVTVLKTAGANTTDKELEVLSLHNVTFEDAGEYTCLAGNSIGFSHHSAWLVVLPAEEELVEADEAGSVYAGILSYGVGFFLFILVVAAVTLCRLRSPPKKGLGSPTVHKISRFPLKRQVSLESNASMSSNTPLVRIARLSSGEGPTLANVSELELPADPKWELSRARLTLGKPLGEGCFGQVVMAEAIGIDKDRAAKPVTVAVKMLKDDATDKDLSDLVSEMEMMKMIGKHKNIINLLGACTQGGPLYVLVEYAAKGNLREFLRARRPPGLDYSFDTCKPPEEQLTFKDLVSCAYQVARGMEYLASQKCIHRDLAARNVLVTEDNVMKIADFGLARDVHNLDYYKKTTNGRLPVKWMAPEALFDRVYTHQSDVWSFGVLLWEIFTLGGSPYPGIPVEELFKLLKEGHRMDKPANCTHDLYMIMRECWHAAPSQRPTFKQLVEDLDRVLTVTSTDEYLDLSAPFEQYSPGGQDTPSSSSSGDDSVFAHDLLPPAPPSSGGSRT
# [22] = molecular target: Fibroblast growth factor receptor 2 (Homo sapiens, UniProt P21802); experiment: Inhibition of FGFR2 (unknown origin)
# Chain of Fibroblast growth factor receptor 2 (P21802 whole entry): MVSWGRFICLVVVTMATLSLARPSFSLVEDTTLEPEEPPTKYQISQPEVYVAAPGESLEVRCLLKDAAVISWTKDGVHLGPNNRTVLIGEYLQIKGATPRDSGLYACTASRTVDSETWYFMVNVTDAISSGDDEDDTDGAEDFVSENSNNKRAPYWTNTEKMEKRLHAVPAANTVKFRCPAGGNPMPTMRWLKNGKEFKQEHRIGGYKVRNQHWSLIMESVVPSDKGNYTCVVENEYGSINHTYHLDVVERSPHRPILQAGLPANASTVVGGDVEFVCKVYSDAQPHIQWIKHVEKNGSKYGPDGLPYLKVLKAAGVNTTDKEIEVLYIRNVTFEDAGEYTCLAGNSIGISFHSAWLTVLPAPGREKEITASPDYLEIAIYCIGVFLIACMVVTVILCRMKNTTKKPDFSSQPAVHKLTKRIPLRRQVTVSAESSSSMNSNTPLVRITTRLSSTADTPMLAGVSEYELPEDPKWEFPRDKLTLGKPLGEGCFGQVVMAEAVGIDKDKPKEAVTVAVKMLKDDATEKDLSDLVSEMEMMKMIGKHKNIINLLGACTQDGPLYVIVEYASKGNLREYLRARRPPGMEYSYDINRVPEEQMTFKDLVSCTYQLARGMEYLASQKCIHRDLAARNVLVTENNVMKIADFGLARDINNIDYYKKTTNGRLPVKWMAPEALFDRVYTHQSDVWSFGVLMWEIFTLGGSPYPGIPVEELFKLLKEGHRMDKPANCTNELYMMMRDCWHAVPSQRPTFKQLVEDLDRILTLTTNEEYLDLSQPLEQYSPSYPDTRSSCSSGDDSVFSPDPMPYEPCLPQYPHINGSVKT
smiles,measurement,setting,value
O=C(CCCCCCC(=O)Nc1ccccc1)NO [VORINOSTAT],Activity,SNU-16 [1],10.46%
same,Activity,[2],Non-Toxic
same,Activity,SNU-16 [3],9.98%
same,Activity,[4],Non-Toxic
same,Activity,SNU-16 [5],80.33%
same,Activity,SNU-16 [6],6.4%
same,Activity,SNU-16 [7],2.48%
same,Activity,SNU-16 [8],3.12%
same,Activity,SNU-16 [9],15.42%
same,IC50,K562,2240 nM
same,Activity,SNU-16 [10],6.19%
same,Activity,SNU-16 [11],77.22%
same,Activity,SNU-16 [12],80.66%
same,Activity,SNU-16 [13],6.85%
same,Activity,SNU-16 [14],3.16%
same,Activity,SNU-16 [15],3.51%
same,Activity,SNU-16 [16],84.26%
same,Activity,SNU-16 [17],5.77%
same,Activity,SNU-16 [18],4.21%
COc1cc(OC)cc(N(CCNC(C)C)c2ccc3ncc(-c4cnn(CCCCCCCCC(=O)NO)c4)nc3c2)c1,IC50,Histone deacetylase 1,16 nM
COc1cc(OC)cc(N(CCNC(C)C)c2ccc3ncc(-c4cnn(CCCCOc5ccc(C(=O)NO)cc5)c4)nc3c2)c1,IC50,Histone deacetylase 1,160 nM
COc1cc(OC)cc(N(CC2CC2)c2ccc3ncc(-c4cnn(CCCCC(=O)NO)c4)nc3c2)c1,IC50,Histone deacetylase 1,177 nM
COc1cc(OC)cc(N(CCNC(C)C)c2ccc3ncc(-c4cnn(CCOc5ccc(C(=O)NO)cc5)c4)nc3c2)c1,IC50,Histone deacetylase 8,288 nM
same,IC50,Histone deacetylase 1,5.9 nM
same,IC50,[19],3.4 nM
same,IC50,[20],1.3 nM
same,IC50,[21],0.62 nM
same,IC50,[22],1.9 nM
COc1cc(OC)cc(N(CC2CC2)c2ccc3ncc(-c4cnn(CCCC(=O)NO)c4)nc3c2)c1,IC50,Histone deacetylase 1,> 1000 nM
COc1cc(OC)cc(N(CCNC(C)C)c2ccc3ncc(-c4cnn(Cc5ccc(CC(=O)NO)cc5)c4)nc3c2)c1,IC50,Histone deacetylase 1,> 1000 nM
COc1cc(OC)cc(N(CCCCC(=O)NO)c2ccc3ncc(-c4cnn(C)c4)nc3c2)c1,IC50,Histone deacetylase 1,157 nM
same,IC50,[19],107 nM
COc1cc(OC)cc(N(CCNC(C)C)c2ccc3ncc(-c4cnn(Cc5cccc(C(=O)NO)c5)c4)nc3c2)c1,IC50,Histone deacetylase 1,> 1000 nM
COc1cc(OC)cc(N(CC2CC2)c2ccc3ncc(-c4cnn(CCCCCC(=O)NO)c4)nc3c2)c1,IC50,Histone deacetylase 1,77 nM
COc1cc(OC)cc(N(CCNC(C)C)c2ccc3ncc(-c4cnn(CCCCCOc5ccc(C(=O)NO)cc5)c4)nc3c2)c1,IC50,Histone deacetylase 1,273 nM
COc1cc(OC)cc(N(CCCCCC(=O)NO)c2ccc3ncc(-c4cnn(C)c4)nc3c2)c1,IC50,Histone deacetylase 1,2.6 nM
same,IC50,[19],6.3 nM
